The record followed here is ChEMBL document CHEMBL1201862, “PubChem BioAssay data set” (2004).

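Interpolation was linear, between the two tested concentrations surrounding the appropriate level; five concentrations were tested over 48 hours in 96-well plates. GI50: concentration for 50% inhibition of growth.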 Active and inactive are the calls of the source. Cut-off read from the data, not from the text of the source: active = GI50 up to about 1.1 µM and inactive = higher.

Some test systems named below: IGROV-1; NCI-H522; SF-295; SK-MEL-5; NCI-H23; HCC 2998; HT-29; HCT-15; DMS-273; SW-620; A498; KM12; COLO 205; OVCAR-5; OVCAR-8; SN12C; LOX IMVI; SK-MEL-28; CAKI-1.
Holding throughout (assay): NCI tumour cell line growth inhibition, 48 h

For `N#Cc1ccccc1NC(=O)C(=O)C(C(=O)c1ccccc1F)C1OC(=O)c2ccccc21` (centres undefined), the GI50 with IGROV-1 is 86.1 µM (inactive); in the test with NCI-H522 it was 21 µM (inactive); in the test on SF-295 it was 55.1 µM (inactive); with SK-MEL-5, 89.3 µM (inactive); in the test on NCI-H23, 40.4 µM (inactive); with HCC 2998, 19.9 µM (inactive). For the same compound, the GI50 was 40 µM (inactive) in the test on HT-29; 30.1 µM in the test on HCT-15; 30.8 µM (inactive) with DMS-273; > 100 µM (inactive) with SW-620; > 100 µM (inactive) in the test with A498; 41.2 µM (inactive) in the test with KM12. For the same compound, the GI50 with COLO 205 is 37.7 µM (inactive); in the test on OVCAR-5 it was 65.6 µM (inactive); with OVCAR-8 it was 40.7 µM (inactive); in the test with SN12C it was 28.2 µM (inactive); in the test with LOX IMVI it was 21.9 µM (inactive); in the test with SK-MEL-28, 39.4 µM (inactive). Moreover, the GI50 in the test on CAKI-1 was 64.4 µM (inactive).
